We go through six compounds from PubChem BioAssay AID569 (University of Pittsburgh Molecular Library Screening Center, 2006).

Activity calls are given as the source filed them. No rule for the calls is given here.

In this assay the target is M-phase inducer phosphatase 2 (Homo sapiens) (UniProt P30305). Nature of the assay: Cdc25B phosphatase inhibitor potency retest, dose response, biochemical, catalytic domain, fluorescence, IC50 (AID 569). The conditions noted are these: recombinant Cdc25B phosphatase, fluorescence substrate.
M-phase inducer phosphatase 2 (Homo sapiens), sequence (P30305 whole entry, looked up, the tested form may be a part): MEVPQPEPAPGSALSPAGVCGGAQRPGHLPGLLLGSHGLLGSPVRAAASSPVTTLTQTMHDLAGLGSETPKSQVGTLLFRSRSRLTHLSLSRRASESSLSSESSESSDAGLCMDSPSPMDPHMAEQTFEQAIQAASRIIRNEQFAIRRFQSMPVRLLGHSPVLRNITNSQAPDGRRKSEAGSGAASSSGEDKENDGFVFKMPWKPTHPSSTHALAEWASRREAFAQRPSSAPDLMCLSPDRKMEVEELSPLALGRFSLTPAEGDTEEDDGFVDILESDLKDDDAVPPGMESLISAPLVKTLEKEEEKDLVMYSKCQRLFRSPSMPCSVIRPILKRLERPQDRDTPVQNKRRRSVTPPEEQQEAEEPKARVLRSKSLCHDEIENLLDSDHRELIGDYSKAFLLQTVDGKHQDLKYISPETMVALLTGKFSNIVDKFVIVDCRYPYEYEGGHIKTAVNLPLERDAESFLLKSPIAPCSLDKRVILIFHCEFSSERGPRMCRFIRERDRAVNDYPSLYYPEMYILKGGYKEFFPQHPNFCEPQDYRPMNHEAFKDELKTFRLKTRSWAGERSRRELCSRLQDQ
For orientation: IC50 means the concentration needed to halve the response being measured. As to `CCOc1cc(C2C(C#N)=C(N)Oc3n[nH]c(-c4ccccc4)c32)ccc1O` (stereo unspecified), the IC50 is > 50 µM (inactive). Regarding `COc1cccc(N2CCN(C3CC(=O)N(c4cccc(Cl)c4)C3=O)CC2)c1` (stereo unspecified), the IC50 was > 50 µM (inactive). Next, `N#CC1=C(N)N2C(=C(C#N)C13CCCCC3)SC1CCCCC12O` (stereo unspecified): > 50 µM (inactive); `Cc1nc2c(C)cccn2c1/C(O)=C1\C(=O)C(=O)N(CCN(C)C)C1c1ccncc1` (stereo unspecified): > 50 µM (inactive).

On to `O=C1CC(N2CCN(CCc3ccccn3)CC2)C(=O)N1c1ccc(Cl)cc1` (stereo unspecified), for which the IC50 was > 50 µM (inactive). To `Oc1ccc2ccccc2c1C=NC12CN3CCN(CN(C3)C1)C2` belongs 9.53 µM.
